Results from patent US20030199671A1, “Binding molecules for Fc-region polypeptides” (priority 2001, published 2003).
code X = not defined here; code Z = not defined here; Su = not defined here

Columns and labels:
[1] = system: human IgG; type: binding; details: for Batch Binding (% Capture of Total Load) hIgG: Table 18, average ligand density 1.9 μmole/ml; for % IgG Capture - Batch Binding, Human IgG: Table 14, average ligand density 1.8 μM/ml
Procedure: (§1) In addition, the following targets, all unfractionated IgGs, were also evaluated with selected immobilized peptides for species specificity characterization in a similar format: human IgG, goat IgG, bovine IgG, and mouse IgG (Sigma, product nos. I4506, I5256, I5506, and I15381, respectively). In addition, 10 μl aliquots of hydrolyzed NHS-activated Sepharose 4 Fast Flow (Amersham Pharmacia Biotech, product no. 17-0906-01) and immobilized recombinant Protein A (RepliGen Corp., product no. IPA-400) were also assayed as negative and positive controls. IgG targets were diluted into 10 mM phosphate buffer containing 150 mM NaCl and 0.01% Tween 20, pH 7.2 (PBST) or 50 mM Tris buffer containing, 150 mM NaCl and 0.01% Tween-20, pH 7.5 (TBST). Batch (static) binding and elution studies were conducted in a 96-well assay filterplate (Millipore MultiScreen-HV, with 0.45 μm Durapore membrane, product no. MAHVN4510). The target was allowed to incubate with the resin for 1-1.5 hours with shaking at room temperature. Unbound target was collected by centrifugation of samples from the assay plate directly into a low-UV absorbing 96-well collection plate (Costar, product no. 3635 or Greiner, product no. 655801). The unbound target was then quantitated by reading the absorbance at 280 nm (normalized to 1 cm pathlength, 1.4 mg/ml A280 extinction coefficient) of the collection plate on a microplate spectrophotometer (Molecular Devices Corp., SPECTRAmax PLUS) against a buffer blank.
(§2) The percentage bound target was determined by subtracting the mass determined as unbound from the corresponding condition's control values (control non-filtered added directly to the collection plate and/or the negative control). The assay plate was washed (3×) with 200 μl of binding buffer by vacuum filtration followed by addition of 100 μl of various elution conditions (e.g.: 0.1 M sodium bicarbonate buffer, pH 8.5 and/or 0.1 M sodium citrate buffer, pH 4.0). After a 30-60 minute incubation with shaking at room temperature, the eluted target was collected by centrifugation of the assay plate into another collection plate and quantitated in a similar manner. Percent elution of total load was then determined to characterize elution recovery efficiency under various conditions. The assay plate was then washed (3×) with 200 μl of binding buffer by vacuum filtration followed by addition of a resin cleaning condition (e.g., 0.1M CAPS buffer (3-[Cyclohexylamino]-1-propane-sulfonic acid), pH 11.5, to regenerate the resin for re-use. Percentage mass balance determination was calculated to be 90-100% on average.

[2] = system: human IgG; assay: Static (filterplate) binding capacity; details: 25 mg human IgG applied per ml resin
Procedure: These media were used to determine the effect of ligand density on human IgG binding capacity in both static (filterplate) and dynamic (mini-column) modes with commercial immobilized recombinant Protein A (Repligen, IPA400) at a single density as control. Actual ligand densities obtained ranged from 0.17 to 3.2 μmole/ml media as confirmed by quantitative amino acid analysis.
After incubation of the samples, with shaking, at room temperature for one hour, the supernatant liquid from each well, containing unbound IgG, was collected by centrifugation into the cognate well of a collection plate. The assay plate was washed three times with PBST (200 μl/wash) and bound IgG was eluted from the media samples by incubation for 30-60 minutes at room temperature in 100 μl Elution Buffer (100 mM CAPS, pH 11.5). Eluates were collected by centrifugation for analysis. Protein concentrations were determined from A280 measurements and plotted as a function of mg human IgG bound per ml resin vs. mg human IgG applied per ml resin.
The amount of IgG captured (estimated from IgG recovered in the elution step) by the various media is dependent upon both the IgG concentration and the ligand density. […] Under these static conditions, where both ligand and target concentrations are close to KD values, equilibrium binding is established and total capacities cannot be accurately determined. However, over the IgG range of 0 to 25 mg IgG applied per ml resin (0 to 2.5 mg/ml target added to 10 μl of resin), capture of IgG is linear. Beyond this point, up to a level of 200 mg IgG applied per ml resin, saturation becomes more pronounced.

[3] = system: human IgG; assay: Dynamic (mini-column) binding capacity; details: Table 18; total dynamic capacity; average ligand density 1.9 μmole/ml
Procedure: These media were used to determine the effect of ligand density on human IgG binding capacity in both static (filterplate) and dynamic (mini-column) modes with commercial immobilized recombinant Protein A (Repligen, IPA400) at a single density as control.
The IgG solution was loaded onto the column at a flow rate of 0.2 ml/minute (170 cm/hr). […] At the end of the loading period, the column was washed with PBS until the absorbance at 280 nm of the column eluant returned to baseline. […] Neutralizing the pH of the eluted fractions was unnecessary since the total IgG eluted was determined by total protein absorbance at 280 nm.
To establish total media capacities, IgG was loaded onto the columns until the absorbances of the column load and flow through streams were identical (loading to full capacity). After washing the column to baseline, bound IgG was eluted and the total amount captured from this elution fraction determined. The total capacity of the media (mg IgG/ml media) as total IgG captured divided by the column bed volume was calculated.
Additionally, column capacities at 10% breakthrough were calculated from the online A280 measurements of column flowthrough streams. The A280 curves obtained for the column of interest and for an equivalent “blank” column containing hydrolyzed Sepharose FF 4 media were aligned. The difference in areas between these curves (for a retained and non-retained target) from the time of injection to the time at which the A280 value for the column of interest had risen to 10% of the maximum A280 absorbance (100%) obtained for the load solution at 100% IgG capture saturation (10% breakthrough) was graphically integrated. A standard curve was used to relate the integrated area to mg IgG bound and capacity calculated as total IgG bound divided by column bed volume.

[4] = system: goat IgG; type: binding; details: Table 14; average ligand density 1.8 μM/ml
Procedure: as §1, §2

[5] = target: T1, human IgG1 (Homo sapiens, UniProt P01857); type: binding; details: for hIgG1 elution pH 3.0 (% of Total Load): Table 13; for Batch Binding (% Capture of Total Load) hIgG1: Table 18, average ligand density 1.9 μmole/ml
T1 construct: all human subtypes derived from myeloma patients; purchased Calbiochem 400120; host or cells: myeloma patients
Procedure: as §1, §2

[6] = system: mouse IgG; type: binding; details: Table 14; average ligand density 1.8 μM/ml
Procedure: as §1, §2

[7] = target: IgG4 (Homo sapiens, UniProt P01861); type: binding; parameters: all human subtypes derived from myeloma patients; purchased Calbiochem 400126; host or cells: myeloma patients; details: for hIgG4 elution pH 3.0 (% of Total Load): Table 13; for Batch Binding (% Capture of Total Load) hIgG4: Table 18, average ligand density 1.9 μmole/ml
Procedure: as §1, §2

[8] = target: T2, human IgG2 (Homo sapiens, UniProt P01859); type: binding; details: Table 18; average ligand density 1.9 μmole/ml
T2 construct: all human subtypes derived from myeloma patients; purchased Calbiochem 400122; host or cells: myeloma patients
Procedure: as §1, §2

[9] = target: IgG3 (Homo sapiens, UniProt P01860); type: binding; parameters: all human subtypes derived from myeloma patients; purchased Calbiochem 400124; host or cells: myeloma patients; details: Table 18; average ligand density 1.9 μmole/ml
Procedure: as §1, §2

Chain of IgG4 (P01861 1-327 isoform P01861-1): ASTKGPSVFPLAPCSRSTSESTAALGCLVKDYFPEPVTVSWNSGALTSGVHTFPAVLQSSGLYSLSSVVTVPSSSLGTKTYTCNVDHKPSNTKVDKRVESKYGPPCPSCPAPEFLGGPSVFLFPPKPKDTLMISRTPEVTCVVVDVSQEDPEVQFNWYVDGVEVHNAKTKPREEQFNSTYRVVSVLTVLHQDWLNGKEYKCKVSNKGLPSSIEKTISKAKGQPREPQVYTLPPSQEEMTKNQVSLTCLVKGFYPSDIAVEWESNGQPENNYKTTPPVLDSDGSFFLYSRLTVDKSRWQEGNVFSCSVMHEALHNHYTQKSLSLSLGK
T1 sequence (P01857 1-330 isoform P01857-1): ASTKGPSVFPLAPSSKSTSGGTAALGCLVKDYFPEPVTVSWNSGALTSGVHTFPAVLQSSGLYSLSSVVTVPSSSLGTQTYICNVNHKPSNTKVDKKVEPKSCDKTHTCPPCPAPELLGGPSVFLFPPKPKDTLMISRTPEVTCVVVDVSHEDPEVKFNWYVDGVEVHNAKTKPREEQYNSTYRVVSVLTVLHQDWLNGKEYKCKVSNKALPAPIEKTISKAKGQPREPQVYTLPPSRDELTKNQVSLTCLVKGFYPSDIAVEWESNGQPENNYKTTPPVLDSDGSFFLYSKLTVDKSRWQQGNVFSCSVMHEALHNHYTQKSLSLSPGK
T2 sequence (P01859 1-326 isoform P01859-1): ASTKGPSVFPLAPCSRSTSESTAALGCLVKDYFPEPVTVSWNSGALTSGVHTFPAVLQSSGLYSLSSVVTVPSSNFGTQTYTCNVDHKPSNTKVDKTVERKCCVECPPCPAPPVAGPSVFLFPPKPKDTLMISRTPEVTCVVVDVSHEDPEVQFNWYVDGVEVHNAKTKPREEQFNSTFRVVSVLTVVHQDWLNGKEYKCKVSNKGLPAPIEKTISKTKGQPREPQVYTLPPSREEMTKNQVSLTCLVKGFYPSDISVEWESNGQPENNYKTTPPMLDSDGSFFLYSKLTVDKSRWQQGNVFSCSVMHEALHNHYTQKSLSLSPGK
Chain of IgG3 (P01860 1-377 isoform P01860-1): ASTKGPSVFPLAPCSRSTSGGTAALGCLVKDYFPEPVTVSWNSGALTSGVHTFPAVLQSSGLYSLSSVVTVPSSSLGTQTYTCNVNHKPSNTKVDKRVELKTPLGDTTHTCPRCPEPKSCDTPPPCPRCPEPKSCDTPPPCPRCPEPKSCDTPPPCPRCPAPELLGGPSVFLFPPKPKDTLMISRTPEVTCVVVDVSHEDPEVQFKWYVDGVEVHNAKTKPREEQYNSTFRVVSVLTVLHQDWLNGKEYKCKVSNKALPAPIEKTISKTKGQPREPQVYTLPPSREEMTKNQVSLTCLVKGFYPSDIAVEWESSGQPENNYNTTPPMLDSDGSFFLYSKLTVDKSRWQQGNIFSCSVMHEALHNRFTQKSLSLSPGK

Row | Substance | Batch Binding (% Capture of Total Load) hIgG [1] [%] | Static Cap. ([2]; Table 18, average ligand density 1.9 μmole/ml) [mg/mL] | Dynamic Cap. [3] [mg/mL] | % IgG Capture - Batch Binding, Goat IgG [4] [%] | hIgG1 elution pH 3.0 (% of Total Load) [5] [%] | % IgG Capture - Batch Binding, Human IgG [1] [%] | % IgG Capture - Batch Binding, Mouse IgG [6] [%] | hIgG4 elution pH 3.0 (% of Total Load) [7] [%] | Batch Binding (% Capture of Total Load) hIgG1 [5] [%] | Batch Binding (% Capture of Total Load) hIgG2 [8] [%] | Decrease in apparent relative static capacity compared to DX249, DX877 and DX878 [2] [fold] | Batch Binding (% Capture of Total Load) hIgG3 [9] [%] | Batch Binding (% Capture of Total Load) hIgG4 [7] [%]
1 | Ac-GDDHMCVYTTWGELIWCDNHEPGPEG-X-NH2 (Ac-GDDHMCVYTTWGELIWCDNHEPGPEG-{code X-NH2}; not fully specified (bridges); printed as Ac-GDDHMCVYTTWGELIWCDNHEPGPEG-X-NH2; cysteine pairing not given here; reading uncertain) [DX877] | 61 | 20 | 8 |  |  |  |  |  |  |  |  |  | 
2 | Ac-GDNPMCWRASWWEDAYCINHEPGPEGGGK-NH2 (not fully specified (bridges); printed as Ac-GDNPMCWRASWWEDAYCINHEPGPEGGGK-NH2; cysteine pairing not given here) [DX1071] |  |  |  | 3 | 4 | 45 | 8 | 5 |  |  |  |  | 
3 | Ac-GDDHMCVYTTWGELIWCDNH-X-Z-X-NH2 (Ac-GDDHMCVYTTWGELIWCDNH-{code X-code Z-code X-NH2}; not fully specified (bridges); printed as Ac-GDDHMCVYTTWGELIWCDNH-X-Z-X-NH2; cysteine pairing not given here; reading uncertain) [DX911] | 43 |  |  |  |  |  |  |  | 58 | 46 | ~2 | 6 | 25
4 | Ac-GDNPMCWRAHWWEDAYCINHEPGPEGGGK-NH2 (not fully specified (bridges); printed as Ac-GDNPMCWRAHWWEDAYCINHEPGPEGGGK-NH2; cysteine pairing not given here) [DX1072] |  |  |  | 4 | 27 | 49 |  | 11 |  |  |  |  | 
5 | Ac-GDDHMCVYTTWGELIWCDNH-X-Su-X-NH2 (Ac-GDDHMCVYTTWGELIWCDNH-{code X-Su-code X-NH2}; not fully specified (bridges); printed as Ac-GDDHMCVYTTWGELIWCDNH-X-Su-X-NH2; cysteine pairing not given here; reading uncertain) [DX909] | 49 |  |  |  |  |  |  |  | 66 | 54 | ~2 |  | 33
6 | Ac-GDDHMCVYTTWGELIWCDNH-X-NH2 (Ac-GDDHMCVYTTWGELIWCDNH-{code X-NH2}; not fully specified (bridges); printed as Ac-GDDHMCVYTTWGELIWCDNH-X-NH2; cysteine pairing not given here; reading uncertain) [DX907] | 49 |  | 5 |  |  |  |  |  | 65 | 54 | ~2 | 7 | 35
